Experimental findings from patent US12065436B2, “Cardiac sarcomere inhibitors” (Cytokinetics, Inc., priority 2018, dated 2024) are described below.

As usually defined, the IC50 is the concentration that inhibits the measured activity by half.

The target of the assay is bovine cardiac myofibrils (full-length cardiac myosin ATPase in the native sarcomere) (Bos taurus (Bovine), UniProt Q9BE39). Put plainly: Skinned bovine cardiac myofibril ATPase assay (PK/LDH-coupled). The format is biochemical. The following applies: Ca2+ activating to 75% of maximal rate; for CDMF75 IC15: concentration giving 15% inhibition; for IC50: read-out: CDMF75 IC50. The method, boiled down: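 Triton-skinned bovine left-ventricle myofibrils (1 mg/mL) in PM 12 buffer (12 mM PIPES, 2 mM MgCl2, pH 6.8) with 50 μM ATP, 0.6 mM EGTA and CaCl2 set for 50% or 75% activation. Steady-state ATPase inhibition followed by PK/LDH-coupled NADH oxidation at 340 nm.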
Sequence of bovine cardiac myofibrils (full-length cardiac myosin ATPase in the native sarcomere) (Q9BE39 whole entry): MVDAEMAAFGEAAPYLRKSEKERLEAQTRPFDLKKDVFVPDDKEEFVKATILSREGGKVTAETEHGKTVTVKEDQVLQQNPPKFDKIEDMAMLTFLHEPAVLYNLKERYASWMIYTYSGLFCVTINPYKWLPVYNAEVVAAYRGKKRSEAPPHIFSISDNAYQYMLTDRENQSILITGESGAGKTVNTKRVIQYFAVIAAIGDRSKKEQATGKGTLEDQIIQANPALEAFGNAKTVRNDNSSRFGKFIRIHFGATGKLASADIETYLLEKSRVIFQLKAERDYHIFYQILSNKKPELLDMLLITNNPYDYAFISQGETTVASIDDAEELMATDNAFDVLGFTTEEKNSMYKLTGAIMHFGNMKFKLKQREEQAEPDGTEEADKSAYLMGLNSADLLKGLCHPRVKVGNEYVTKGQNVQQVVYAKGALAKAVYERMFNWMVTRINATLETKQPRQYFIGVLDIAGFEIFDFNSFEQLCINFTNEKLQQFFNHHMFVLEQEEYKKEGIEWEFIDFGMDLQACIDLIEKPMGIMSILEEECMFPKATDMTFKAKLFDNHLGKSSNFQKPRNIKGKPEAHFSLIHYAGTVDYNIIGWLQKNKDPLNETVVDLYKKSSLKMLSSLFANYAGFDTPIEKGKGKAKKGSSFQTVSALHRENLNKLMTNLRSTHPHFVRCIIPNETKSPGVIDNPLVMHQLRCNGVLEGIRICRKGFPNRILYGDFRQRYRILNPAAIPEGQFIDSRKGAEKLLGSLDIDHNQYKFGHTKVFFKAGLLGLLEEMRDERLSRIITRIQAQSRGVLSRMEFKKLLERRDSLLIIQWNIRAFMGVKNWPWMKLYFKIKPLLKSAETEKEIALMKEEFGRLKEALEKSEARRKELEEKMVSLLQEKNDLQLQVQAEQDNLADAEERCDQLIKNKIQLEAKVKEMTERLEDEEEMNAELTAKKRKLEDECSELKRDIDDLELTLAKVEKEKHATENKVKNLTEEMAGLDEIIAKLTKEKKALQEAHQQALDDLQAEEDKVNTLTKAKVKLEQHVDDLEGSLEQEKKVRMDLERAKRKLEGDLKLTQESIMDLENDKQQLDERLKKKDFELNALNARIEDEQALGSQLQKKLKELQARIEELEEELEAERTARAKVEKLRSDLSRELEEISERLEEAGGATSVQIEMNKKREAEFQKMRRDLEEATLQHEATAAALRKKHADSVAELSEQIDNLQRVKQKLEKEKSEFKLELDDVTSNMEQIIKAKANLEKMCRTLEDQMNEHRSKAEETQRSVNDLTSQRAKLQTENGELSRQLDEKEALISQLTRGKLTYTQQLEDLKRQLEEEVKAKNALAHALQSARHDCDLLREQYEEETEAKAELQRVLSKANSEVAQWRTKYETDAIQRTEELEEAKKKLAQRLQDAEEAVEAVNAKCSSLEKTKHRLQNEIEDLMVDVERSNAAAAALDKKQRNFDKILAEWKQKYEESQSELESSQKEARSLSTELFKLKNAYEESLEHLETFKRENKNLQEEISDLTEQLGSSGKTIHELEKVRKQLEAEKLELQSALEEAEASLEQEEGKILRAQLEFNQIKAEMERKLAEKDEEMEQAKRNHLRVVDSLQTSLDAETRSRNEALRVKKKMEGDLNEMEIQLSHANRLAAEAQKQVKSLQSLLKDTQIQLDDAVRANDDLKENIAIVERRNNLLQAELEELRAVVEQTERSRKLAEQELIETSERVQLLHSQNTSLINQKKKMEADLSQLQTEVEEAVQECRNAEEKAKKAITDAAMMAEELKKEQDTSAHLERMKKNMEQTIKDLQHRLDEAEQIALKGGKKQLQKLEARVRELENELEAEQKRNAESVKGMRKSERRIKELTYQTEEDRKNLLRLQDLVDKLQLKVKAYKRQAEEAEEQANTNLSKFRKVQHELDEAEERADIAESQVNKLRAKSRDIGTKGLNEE
Sequence of bovine cardiac myofibrils (full-length cardiac myosin ATPase in the native sarcomere) (P85100 whole entry partner): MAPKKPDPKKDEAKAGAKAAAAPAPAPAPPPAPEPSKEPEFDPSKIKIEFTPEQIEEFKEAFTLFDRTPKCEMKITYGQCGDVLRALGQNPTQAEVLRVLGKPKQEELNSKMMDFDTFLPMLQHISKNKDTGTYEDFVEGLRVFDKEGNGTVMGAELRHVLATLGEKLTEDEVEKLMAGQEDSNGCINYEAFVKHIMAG
Sequence of bovine cardiac myofibrils (full-length cardiac myosin ATPase in the native sarcomere) (Q3SZE5 whole entry partner): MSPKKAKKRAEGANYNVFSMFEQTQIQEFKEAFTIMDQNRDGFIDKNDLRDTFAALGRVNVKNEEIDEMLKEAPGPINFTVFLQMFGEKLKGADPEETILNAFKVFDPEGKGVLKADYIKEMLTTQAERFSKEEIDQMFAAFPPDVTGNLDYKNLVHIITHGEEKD

A value given as a limit tells only on which side of the number the result lay.

Regarding `COCc1nc(-c2ccc3c(c2)CC[C@H]3NC(=O)c2ocnc2C)no1` [Compound 177, (R)-N-(5-(5-(methoxymethyl)-1,2,4-oxadiazol-3-yl)-2,3-dihydro-1H-inden-1-yl)-4-methyloxazole-5-carboxamide], the “CDMF75 IC15” value came out at 0.5 µM and the IC50 was found to be 1.8 µM.

Turning to `CCc1nc(-c2ccc3c(c2)CC[C@H]3NC(=O)c2cnc(CO)n2C)no1` [Compound 613, (R)-N-(5-(5-ethyl-1,2,4-oxadiazol-3-yl)-2,3-dihydro-1H-inden-1-yl)-2-(hydroxymethyl)-1-methyl-1H-imidazole-5-carboxamide], the “CDMF75 IC15” value stood at 0.4 µM and the IC50 came out at 1.4 µM.

For `Cn1nccc1C(=O)N[C@@H]1CCc2cc(-c3nc(C4CC4)no3)ccc21` [Compound 261, (R)—N-(5-(3-cyclopropyl-1,2,4-oxadiazol-5-yl)-2,3-dihydro-1H-inden-1-yl)-1-methyl-1H-pyrazole-5-carboxamide], the “CDMF75 IC15” value amounted to 0.4 µM and the IC50 turned out to be 1.2 µM.

Consider `Cc1nc(-c2ccc3c(c2)OC[C@H]3NC(=O)c2nnn(C)n2)no1` [Compound 200, (S)-2-methyl-N-(6-(5-methyl-1,2,4-oxadiazol-3-yl)-2,3-dihydrobenzofuran-3-yl)-2H-tetrazole-5-carboxamide], for which the “CDMF75 IC15” value was 2.6 µM and the IC50 was 11.3 µM.

For `CC(CO)c1nc(-c2ccc3c(c2)CC[C@H]3NC(=O)c2nnn(C)n2)no1` (stereo partly drawn) [Compound 518, N-((1R)-5-(5-(1-hydroxypropan-2-yl)-1,2,4-oxadiazol-3-yl)-2,3-dihydro-1H-inden-1-yl)-2-methyl-2H-tetrazole-5-carboxamide], the “CDMF75 IC15” value came out at 27.8 µM and the IC50 stood at 39.2 µM.

Take `C[C@@H](O)Cn1cc(C(=O)N[C@@H]2CCc3cc(-c4noc(C5CC5)n4)ccc32)cn1` [Compound 576, N-((R)-5-(5-cyclopropyl-1,2,4-oxadiazol-3-yl)-2,3-dihydro-1H-inden-1-yl)-1-((R)-2-hydroxypropyl)-1H-pyrazole-4-carboxamide]: the “CDMF75 IC15” value is 3.5 µM and the IC50 amounted to 15.2 µM.

Turning to `CCc1nc(-c2ccc3c(c2)CC[C@H]3NC(=O)c2ccnnc2C)no1` [Compound 637, (R)-N-(5-(5-ethyl-1,2,4-oxadiazol-3-yl)-2,3-dihydro-1H-inden-1-yl)-3-methylpyridazine-4-carboxamide], the “CDMF75 IC15” value is 3.1 µM and the IC50 was 11.6 µM.

Take `Cc1c(C(=O)N[C@@H]2CCc3cc(-c4noc(C(F)F)n4)ccc32)cnn1CCO` [Compound 675, (R)-N-(5-(5-(difluoromethyl)-1,2,4-oxadiazol-3-yl)-2,3-dihydro-1H-inden-1-yl)-1-(2-hydroxyethyl)-5-methyl-1H-pyrazole-4-carboxamide]: the “CDMF75 IC15” value was 0.8 µM and the IC50 came to 2.7 µM.

Consider `CCc1nc(-c2ccc3c(c2)OC[C@H]3NC(=O)N2CC[C@H](F)C2)no1` [Compound 742, (S)-N-((S)-6-(5-ethyl-1,2,4-oxadiazol-3-yl)-2,3-dihydrobenzofuran-3-yl)-3-fluoropyrrolidine-1-carboxamide], for which the “CDMF75 IC15” value worked out at 3.4 µM and the IC50 is 16.6 µM.

For `Cc1noc(C(=O)NC2CCc3cc(-c4noc(C)n4)ccc32)n1` (stereo not shown) [Compound 128, 3-methyl-N-(5-(5-methyl-1,2,4-oxadiazol-3-yl)-2,3-dihydro-1H-inden-1-yl)-1,2,4-oxadiazole-5-carboxamide], the “CDMF75 IC15” value was determined as 2.6 µM and the 50% inhibitory concentration (IC50) was 12.2 µM.

For the molecule `Cc1nc(-c2ccc3c(c2)CCC3NC(=O)c2c[nH]nc2C)no1` (stereo not shown) [Compound 70, 3-methyl-N-(5-(5-methyl-1,2,4-oxadiazol-3-yl)-2,3-dihydro-1H-inden-1-yl)-1H-pyrazole-4-carboxamide], the “CDMF75 IC15” value came to 1.4 µM and the IC50 was 4.8 µM.

Regarding `Cc1c(C(=O)N[C@@H]2CCc3cc(-c4nc(C5CC5)no4)ccc32)cnn1C` [Compound 259, (R)-N-(5-(3-cyclopropyl-1,2,4-oxadiazol-5-yl)-2,3-dihydro-1H-inden-1-yl)-1,5-dimethyl-1H-pyrazole-4-carboxamide], the “CDMF75 IC15” value stood at 0.8 µM and the IC50 was determined as 3 µM.

As for `CCc1nc(-c2ccc3c(c2)CC[C@H]3NC(C)=O)no1` [Compound 405, (R)-N-(5-(5-ethyl-1,2,4-oxadiazol-3-yl)-2,3-dihydro-1H-inden-1-yl)acetamide], the “CDMF75 IC15” value came to 0.6 µM and the IC50 was 2.3 µM.

On to `CCc1nc(-c2ccc3c(c2)CC[C@H]3NC(=O)c2cccc(CCO)c2)no1` [Compound 659, (R)-N-(5-(5-ethyl-1,2,4-oxadiazol-3-yl)-2,3-dihydro-1H-inden-1-yl)-3-(2-hydroxyethyl)benzamide], for which the “CDMF75 IC15” value came to 0.5 µM and the IC50 amounted to 1.7 µM.

Take `Cc1nc(-c2ccc3c(c2)CC[C@H]3NC(=O)c2nnn(C)n2)no1` [Compound 136, (R)-2-methyl-N-(5-(5-methyl-1,2,4-oxadiazol-3-yl)-2,3-dihydro-1H-inden-1-yl)-2H-tetrazole-5-carboxamide]: the “CDMF75 IC15” value amounted to 0.8 µM and the IC50 stood at 2.8 µM.

As to `Cn1cc(C(=O)N[C@@H]2CCc3cc(-c4noc(CCO)n4)ccc32)cn1` [Compound 552, N-{(1R)-5-[5-(2-hydroxyethyl)(1,2,4-oxadiazol-3-yl)]indanyl}(1-methylpyrazol-4-yl)carboxamide], the “CDMF75 IC15” value stood at 13.7 µM and the IC50 turned out to be 39.2 µM.

As to `CCc1nc(-c2ccc3c(c2)CC[C@H]3NC(=O)c2ncc(C)o2)no1` [Compound 636, (R)-N-(5-(5-ethyl-1,2,4-oxadiazol-3-yl)-2,3-dihydro-1H-inden-1-yl)-5-methyloxazole-2-carboxamide], the “CDMF75 IC15” value was 0.6 µM and the IC50 came out at 2.2 µM.

Regarding `CCc1nc(-c2ccc3c(c2)CCCC3NC(=O)c2cnn(C)c2)no1` (stereo not shown) [Compound 515, N-(6-(5-ethyl-1,2,4-oxadiazol-3-yl)-1,2,3,4-tetrahydronaphthalen-1-yl)-1-methyl-1H-pyrazole-4-carboxamide], the “CDMF75 IC15” value was determined as 4.3 µM and the IC50 turned out to be 19.5 µM.

In the case of `Cc1nc(-c2ccc3c(c2)OCC3NC(=O)c2cnn(C)c2)no1` (stereo not shown) [Compound 212, 1-methyl-N-(6-(5-methyl-1,2,4-oxadiazol-3-yl)-2,3-dihydrobenzofuran-3-yl)-1H-pyrazole-4-carboxamide], the “CDMF75 IC15” value was 1.7 µM and the IC50 is 6 µM.

Consider `CCc1nc(-c2ccc3c(c2)C[C@H](O)[C@H]3NC(=O)c2cnn(C)c2)no1` [Compound 495, N-((1S,2S)-5-(5-ethyl-1,2,4-oxadiazol-3-yl)-2-hydroxy-2,3-dihydro-1H-inden-1-yl)-1-methyl-1H-pyrazole-4-carboxamide], for which the “CDMF75 IC15” value was determined as 10.0 µM and the IC50 was determined as 39.2 µM.

Consider `CCc1cc(-c2ccc3c(c2)CC[C@H]3NC(=O)c2ccnn2C)no1` [Compound 414, (R)—N-(5-(5-ethylisoxazol-3-yl)-2,3-dihydro-1H-inden-1-yl)-1-methyl-1H-pyrazole-5-carboxamide], for which the “CDMF75 IC15” value came out at 0.2 µM and the 50% inhibitory concentration (IC50) worked out at 0.6 µM.

Turning to `CCc1nc(-c2ccc3c(c2)OC[C@H]3NC(=O)N2CC[C@@H](F)C2)no1` [Compound 743, (R)-N-((S)-6-(5-ethyl-1,2,4-oxadiazol-3-yl)-2,3-dihydrobenzofuran-3-yl)-3-fluoropyrrolidine-1-carboxamide], the “CDMF75 IC15” value was 7.4 µM and the IC50 amounted to 36.7 µM.

Turning to `O=C(N[C@@H]1CCc2cc(-c3noc(C(F)F)n3)ccc21)C1CCCO1` (stereo partly drawn) [Compound 293, N-((R)-5-(5-(difluoromethyl)-1,2,4-oxadiazol-3-yl)-2,3-dihydro-1H-inden-1-yl)tetrahydrofuran-2-carboxamide], the “CDMF75 IC15” value was determined as 20.4 µM and the IC50 is above 39.2 µM.

As for `O=C(N[C@@H]1COc2cc(-c3noc(C(F)F)n3)ccc21)c1cc(CO)ccn1` [Compound 708, (S)-N-(6-(5-(difluoromethyl)-1,2,4-oxadiazol-3-yl)-2,3-dihydrobenzofuran-3-yl)-4-(hydroxymethyl)picolinamide], the “CDMF75 IC15” value is 0.6 µM and the IC50 was 2.8 µM.

For the molecule `CCc1nc(-c2ccc3c(c2)CC[C@H]3NC(=O)c2ncoc2C)no1` [Compound 622, (R)-N-(5-(5-ethyl-1,2,4-oxadiazol-3-yl)-2,3-dihydro-1H-inden-1-yl)-5-methyloxazole-4-carboxamide], the “CDMF75 IC15” value was found to be 0.9 µM and the IC50 was 3.6 µM.

Take `CCc1nc(-c2cnc3c(c2)CCC3NC(=O)c2ccccc2)no1` (stereo not shown) [Compound 17, N-(3-(5-ethyl-1,2,4-oxadiazol-3-yl)-6,7-dihydro-5H-cyclopenta[b]pyridin-7-yl)benzamide]: the “CDMF75 IC15” value came out at 2.3 µM and the IC50 was 11.3 µM.

Take `CCc1nc(-c2ccc3c(c2)CC[C@H]3NC(=O)c2ccn(CCO)n2)no1` [Compound 608, (R)-N-(5-(5-ethyl-1,2,4-oxadiazol-3-yl)-2,3-dihydro-1H-inden-1-yl)-1-(2-hydroxyethyl)-1H-pyrazole-3-carboxamide]: the “CDMF75 IC15” value was determined as 1.2 µM and the IC50 is 4.6 µM.

On to `CCc1nc(-c2ccc3c(c2)CC[C@H]3NC(=O)c2cccc(C(O)CO)c2)no1` (stereo partly drawn) [Compound 700, 3-(1,2-dihydroxyethyl)-N-((R)-5-(5-ethyl-1,2,4-oxadiazol-3-yl)-2,3-dihydro-1H-inden-1-yl)benzamide], for which the “CDMF75 IC15” value came out at 0.7 µM and the IC50 is 2.6 µM.

Take `CCc1nc(-c2ccc3c(c2)OC[C@H]3NC(=O)N2CC[C@@H](O)C2)no1` [Compound 740, (R)-N-((S)-6-(5-ethyl-1,2,4-oxadiazol-3-yl)-2,3-dihydrobenzofuran-3-yl)-3-hydroxypyrrolidine-1-carboxamide]: the “CDMF75 IC15” value amounted to 1.9 µM and the IC50 was found to be 6.9 µM.
